Assay results: US12577216B2, “Triazine benzoate compound and application thereof” (SHENYANG SINOCHEM AGROCHEMICALS R&D CO., LTD., priority 2020, dated 2026)

Tests used:
zinnia = test: Determination of herbicidal activity, post-emergence stem and leaf spray, zinnia; format: in vivo; details: for control effects on zinnia: 150 g a.i./hm^2, after emergence, visual 0-100%; for Herbicidal activity for Zinnia, control effect %: Table 3 parallel comparison
Method: (§1) Seeds of broadleaf weeds (zinnia and piemarker) or grassy weeds (green bristlegrass and barnyard grass) were respectively sown in a paper cup having a diameter of 7 cm and containing nutrient soil; after sowing, the seeds were covered with 1 cm of soil; the soil was pressed and watered, and then the seeds were cultivated in a greenhouse according to a conventional method; and stems and leaves were sprayed after 2-3 leaf stage of the weeds.
(§2) After the original medicinal acetone was dissolved, the test requires to use 1‰ of Tween 80 to stand in running water to prepare the solution to be tested with a required concentration. According to the design dose of the test, spray treatment was carried out on a track-type crop sprayer (designed and produced by British Engineer Research Ltd.) (spray pressure is 1.95 kg/cm^2, spray volume is 500 L/hm^2 and track speed is 1.48 km/h). The test was repeated for three times. The test material was treated and then placed in an operation hall. The medicinal liquid was naturally dried in the shade, and then was placed in a greenhouse and managed according to the conventional method. The response of the weeds to the drug was observed and recorded. After treatment, the control effects of the test drug on the weeds were visually inspected regularly, expressed by 0-100%. “0” represents no control effect and “100%” represents complete killing.

piemarker = test: Determination of herbicidal activity, post-emergence stem and leaf spray, piemarker; format: in vivo; details: for control effects on piemarker / pest or weed control at 150 g/ha: 150 g a.i./hm^2, after emergence, visual 0-100%; for Herbicidal activity for Piemarker, control effect %: Table 4 parallel comparison; for pest or weed control at 150 g/ha: post-emergence, read-out: control effects on piemarker
Method: as §1, §2

[1] = 2.34 g a.i./hm^2, after emergence
[2] = 9.375 g a.i./hm^2, after emergence

Structure (SMILES)	control effects on zinnia (zinnia) [%]	Herbicidal activity for Zinnia, control effect % (zinnia; [1]) [%]	Herbicidal activity for Zinnia, control effect % (zinnia; [2]) [%]	control effects on piemarker (piemarker) [%]	Herbicidal activity for Piemarker, control effect % (piemarker; [1]) [%]	Herbicidal activity for Piemarker, control effect % (piemarker; [2]) [%]	pest or weed control at 150 g/ha (piemarker) [%]
CC(OC(=O)c1cc(-n2c(=O)n(C)c(=S)n(C)c2=O)c(F)cc1Cl)C(=O)OCC1CCCO1 (stereo not drawn) [Compound 296]	100	90	100	100			
CC(OC(=O)c1cc(-n2c(=O)n(C)c(=S)n(C)c2=O)c(F)cc1Cl)C(=O)OCc1ccccc1 (stereo not drawn) [Compound 289]	100			100			
CC(OC(=O)c1cc(-n2c(=O)n(C)c(=S)n(C)c2=O)c(F)cc1Cl)C(=O)OCCCCCl (stereo not drawn) [Compound 273]	100			100	90	100	
CCC(OC(=O)c1cc(-n2c(=O)n(C)c(=S)n(C)c2=O)c(F)cc1Cl)C(=O)OCCCl (stereo not drawn) [Compound 301]	100			100			
CC(OC(=O)c1cc(-n2c(=O)n(C)c(=S)n(C)c2=O)c(F)cc1Cl)C(=O)OCC1CO1 (stereo not drawn) [Compound 295]	100	90	100	100			
CC(OC(=O)c1cc(-n2c(=O)n(C)c(=S)n(C)c2=O)c(F)cc1Cl)C(=O)OC/C=C/c1ccccc1 (stereo not drawn) [Compound 290]	100			100			
CC(OC(=O)c1cc(-n2c(=O)n(C)c(=S)n(C)c2=O)ccc1Cl)C(=O)OCC1CC1 (stereo not drawn) [Compound 160]				100			
C[C@@H](OC(=O)c1cc(-n2c(=O)n(C)c(=S)n(C)c2=O)c(F)cc1Cl)C(=O)OCCCl [Compound 266]	100	85	100				100
CCOC(=O)C(CC)OC(=O)c1cc(-n2c(=O)n(C)c(=S)n(C)c2=O)c(F)cc1Cl (stereo not drawn) [Compound 299]	100				85	100	
CCC(OC(=O)c1cc(-n2c(=O)n(C)c(=S)n(C)c2=O)c(F)cc1Cl)C(=O)OCCCCl (stereo not drawn) [Compound 302]	100	90	100	100			
C[C@H](OC(=O)c1cc(-n2c(=O)n(C)c(=S)n(C)c2=O)c(F)cc1Cl)C(=O)OCCCCl [Compound 270]	100	90	100	100	85	100	
C[C@@H](OC(=O)c1cc(-n2c(=O)n(C)c(=S)n(C)c2=O)c(F)cc1Cl)C(=O)OCCCCl [Compound 269]	100	80	95	100			
CC(OC(=O)c1cc(-n2c(=O)n(C)c(=S)n(C)c2=O)c(F)cc1Cl)C(=O)OCC1COC(C)(C)O1 (stereo not drawn) [Compound 297]	100	95	100	100	85	100	
CC(OC(=O)c1cc(-n2c(=O)n(C)c(=S)n(C)c2=O)ccc1Cl)C(=O)OCCCl (racemic) [Compound 138]				100			
CCOC(=O)C(C)(C)OC(=O)c1cc(-n2c(=O)n(C)c(=S)n(C)c2=O)c(F)cc1Cl [Compound 306, 2-chloro-4-fluoro-5-(3,5-dimethyl-2,6-dioxo-4-thio-1,3,5-triazine-1-yl)benzoic acid (1-methyl-1-ethoxycarbonyl)ethyl ester]							100
